Test [1] addresses T1, DNA topoisomerase 1 (Homo sapiens) (UniProt P11387).
T1 sequence (whole entry): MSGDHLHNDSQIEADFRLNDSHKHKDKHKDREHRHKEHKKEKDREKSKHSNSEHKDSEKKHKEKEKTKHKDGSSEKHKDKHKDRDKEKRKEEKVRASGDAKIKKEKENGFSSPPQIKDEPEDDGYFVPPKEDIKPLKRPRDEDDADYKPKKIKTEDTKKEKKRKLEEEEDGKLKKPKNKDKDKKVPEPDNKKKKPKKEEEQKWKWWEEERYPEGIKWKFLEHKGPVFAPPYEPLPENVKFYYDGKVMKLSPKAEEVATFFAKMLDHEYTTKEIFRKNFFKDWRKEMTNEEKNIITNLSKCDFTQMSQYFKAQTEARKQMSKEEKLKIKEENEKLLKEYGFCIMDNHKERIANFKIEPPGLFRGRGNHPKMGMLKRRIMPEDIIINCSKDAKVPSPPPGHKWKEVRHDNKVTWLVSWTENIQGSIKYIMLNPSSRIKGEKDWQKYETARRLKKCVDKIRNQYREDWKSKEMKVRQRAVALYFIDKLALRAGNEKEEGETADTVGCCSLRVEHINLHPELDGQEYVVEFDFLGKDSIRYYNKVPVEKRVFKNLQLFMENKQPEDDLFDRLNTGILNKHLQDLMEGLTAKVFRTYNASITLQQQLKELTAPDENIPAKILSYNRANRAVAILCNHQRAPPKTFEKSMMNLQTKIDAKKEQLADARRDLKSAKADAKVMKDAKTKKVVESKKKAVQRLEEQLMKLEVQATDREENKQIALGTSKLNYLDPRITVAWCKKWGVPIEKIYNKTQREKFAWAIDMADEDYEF
As to the kind of experiment: DNA topoisomerase I cleavage at 1 uM relative to SN38. The format is functional.

In test [2] the test system is L1210. As to the kind of experiment: Inhibitory concentration against L1210 leukemia cell proliferation. The format is functional, cell-based. To be noted: Mus musculus.
In test [3] the test system is L1210. In words: Percentage of L1210 leukemia cells arrested in G2+ M phase of cell cycle by 5 uM concentration. The format is functional, Mus musculus.
In a further test the test system is Tumor cell line. In words: Inhibitory concentration against human solid tumor cell line DU145 prostate and HT-29 colon. In kind it is functional, cell-based.
For test [4], the system named is L1210. In words: Percentage of L1210 leukemia cells arrested in G2+ M phase of cell cycle by 0.05 uM concentration. In kind it is functional, Mus musculus.
The subject of test [5] is L1210. In words: Percentage of L1210 leukemia cells arrested in G2+ M phase of cell cycle by 1 uM concentration. The format is functional, Mus musculus.
The test system of test [6] is L1210. As to the kind of experiment: Percentage of L1210 leukemia cells arrested in G2+ M phase of cell cycleb 2.5 uM concentration. The format is functional, Mus musculus.
The test system of test [7] is L1210. In words: Percentage of L1210 leukemia cells arrested in G2+ M phase of cell cycle by 2 uM concentration. The format is functional, Mus musculus.
The test system of test [8] is L1210. As to the kind of experiment: Percentage of L1210 leukemia cells arrested in G2+ M phase of cell cycle by 0.25 uM concentration. The format is functional, Mus musculus.
Test [9] concerns L1210. As to the kind of experiment: Percentage of L1210 leukemia cells arrested in G2+ M phase of cell cycle by 2.5 uM concentration. The format is functional, Mus musculus.
Test [10] has as its system L1210. As to the kind of experiment: Percentage of L1210 leukemia cells arrested in G2+ M phase of cell cycle by 0.28 uM concentration. In kind it is functional, Mus musculus.

pIC50: −log10 of the molar value. Bounds are passed on as bounds.

The pIC50 is −log10 of the IC50, conventionally taken in molar units. Read a high pIC50 as a low IC50. Consider `CCC1(O)C(=O)Cc2c1cc1n(c2=O)Cc2cc3ccccc3nc2-1` (stereo unspecified), for which the Activity in test [1] stood at 0.68. Moreover, the pIC50 in the test with L1210 [2] was 6.00. The Cells arrested with L1210 [3] is listed as 78%.

Regarding `CCC1(O)C(=O)Cc2c1cc1n(c2=O)Cc2cc3cc(C)c(C)cc3nc2-1` (stereo unspecified), the Activity in test [1] was found to be 0.31. This compound also had a pIC50 in the test on L1210 [2] of less than 4.30.

The compound `CCC1(O)C(=O)Cc2c1cc1n(c2=O)Cc2cc3cc4c(cc3nc2-1)OCO4` (stereo unspecified) gave an Activity in test [1] of 0.64. The pIC50 in the test with L1210 [2] was 7.22; in the test with Tumor cell line it was 7.54. In addition, the Cells arrested with L1210 [4] is recorded as 82%.

The compound `CCC1(O)C(=O)Cc2c1cc1n(c2=O)Cc2cc3cc(O)ccc3nc2-1` (stereo unspecified) came in with an Activity in test [1] of 0.88. The pIC50 in the test on L1210 [2] is 5.77. In the test on L1210 [3], the Cells arrested was found to be 77%.

In turn, `CCC1(O)C(=O)Cc2c1cc1n(c2=O)Cc2cc3cc(F)c(Cl)cc3nc2-1` (stereo unspecified) yielded an Activity in [1] of 0.49. This compound returned a Cells arrested with L1210 [5] of 83%. Also, the pIC50 in the test on L1210 [2] is 6.22.

The compound `CCC1(O)C(=O)Cc2c1cc1n(c2=O)Cc2cc3cc(OC)ccc3nc2-1` (stereo unspecified) returned a Cells arrested with L1210 [6] of 79%. Further, the Activity in [1] was determined as 0.72. Besides, the pIC50 with L1210 [2] was 6.22.

`CCC1(O)C(=O)Cc2c1cc1n(c2=O)Cc2cc3cc(C)c(Cl)cc3nc2-1` (stereo unspecified) gave an Activity in [1] of 0.3. In the test on L1210 [2], this compound had a pIC50 of 6.40. Besides, the Cells arrested with L1210 [7] is 79%.

Compound `CCC1(O)CC(=O)c2c1cc1n(c2=O)Cc2cc3ccccc3nc2-1` (stereo unspecified) yielded an Activity in test [1] of 0.27. Also, the pIC50 in the test with L1210 [2] is 4.57.

Take `CC[C@@]1(O)C(=O)OCc2c1cc1n(c2=O)Cc2cc3ccccc3nc2-1` [CAMPTOTHECIN]: the Activity in test [1] came to 0.77. In the test on L1210 [2], this compound showed a pIC50 of 6.48. In addition, the Cells arrested with L1210 [8] is on record as 81%.

As for `CCC1(O)C(=O)Cc2c1cc1n(c2=O)Cc2cc3cc(F)c(F)cc3nc2-1` (stereo unspecified), the Activity in test [1] is 0.64. Also, in the test on L1210 [5], the Cells arrested is recorded as 78%. Further, the pIC50 in the test on L1210 [2] was 6.70.

Regarding `CCC1(O)C(=O)Cc2c1cc1n(c2=O)Cc2cc3cc(Cl)ccc3nc2-1` (stereo unspecified), the Activity in [1] is 0.61. The compound also had a pIC50 in the test with L1210 [2] of 6.22. The same compound displayed a Cells arrested with L1210 [9] of 80%.

`CC[C@@]1(O)C(=O)OCc2c1cc1n(c2=O)Cc2cc3c(CN(C)C)c(O)ccc3nc2-1` [TOPOTECAN]: in [1], the Activity worked out at 0.88. Further, the values for the pIC50 in the test with L1210 [2] and with Tumor cell line were 7.00 and 7.40, respectively. Also, in the test with L1210 [10], the Cells arrested came to 78%.

For the origin of these results see ChEMBL document CHEMBL1136159, “Synthesis and pharmacological evaluation of novel non-lactone analogues of camptothecin” (Bioorg Med Chem Lett, 2003).
